# Patent publication US12146889B1, “Compounds and combinations thereof for treating neurological and psychiatric conditions” (priority 2022, dated 2024)
# Structures can show the parent of a compound that is named as a salt. Where two headings read alike, the source gives them in different places.
# Experiments:
# [1] = pharmacokinetics in moderate hepatic impairment; assay type: in vivo, human; details: for AUC0-12 and Cmax in moderate hepatic impairment compared with healthy patients: Group 2; for AUC Change Relative to Reference (90% CI); mean ratio of AUC0-12 / Cmax Change Relative to Reference (90% CI); mean ratio of Cmax: Moderate Hepatic Impairment (Group 2), GMR vs matched healthy subjects, after 8 days of twice daily dosing, hydrobromide monohydrate
# [2] = pharmacokinetics in moderate renal impairment
# Excerpt: (§1) Data are GMRs and 90% CIs. References used are the matched healthy subjects for renal and hepatic impairment studies, and extensive or ultra-extensive CYP2D6 metabolizers respectively.
# [3] = solubility of the powder in water
# [4] = bupropion and its metabolites; cited from earlier work
# [5] = effect of food on pharmacokinetics of the subject combination
# [6] = pharmacokinetics in CYP2D6 poor metabolizers
# Excerpt: Approximately 7% to 10% of Caucasians and 3% to 8% of African Americans lack the capacity to metabolize CYP2D6 substrates and are classified as poor metabolizers.
# as §1
# [7] = co-administration with strong CYP2D6 inhibitor (paroxetine)
# [8] = pharmacokinetics of the subject combination at steady state; details: co-administered with bupropion
# [9] = test system: patients with treatment-resistant depression or MDD; details: cited from earlier work
# [10] = test system: patients with treatment-resistant depression or MDD; details: cited from earlier work; remark: listed apart in the source
# [11] = 7 subjects with moderate (GFR 30-60 mL/min) renal impairment vs 6 matched controls
# [12] = patients having moderate renal impairment, tablets of Example 4
# [13] = 3 poor metabolizers, subject combination
# [14] = 20 mg of paroxetine, tablet of Example 4 twice daily, vs tablet twice daily without paroxetine
# [15] = flexible-dose study, patients ≥65 years with treatment-resistant depression, 28 to 84 mg + oral AD, N = 72
smiles,measurement,setting,value
"CC(NC(C)(C)C)C(=O)c1cccc(Cl)c1.Cl (racemic) [bupropion, (±)-1-(3-chlorophenyl)-2-[(1,1-dimethylethyl)amino]-1-propanone hydrochloride]",AUC0-12 and Cmax in moderate hepatic impairment compared with healthy patients,[1],not significantly different
same,increase in AUC0-12 in moderate renal impairment,"[2]; human, in vivo",1.80 fold
same,increase in Cmax in moderate renal impairment,"[2]; human, in vivo",1.87 fold
same,increase of exposure in moderate renal impairment vs matched controls with normal renal function,"[2]; human, in vivo",approximately 2 fold
same,reduction of clearance in moderate renal impairment vs matched controls,"[2]; human, in vivo",50%
same,solubility in water,[3],highly soluble in water
same,presence in human milk,[4],presence of bupropion and its metabolites in human milk
"COc1ccc2c(c1)[C@]13CCCC[C@@H]1[C@H](C2)N(C)CC3 [dextromethorphan, morphinan, 3-methoxy-17-methyl-, (9α, 13α, 14α), hydrobromide monohydrate]",AUC0-12 and Cmax in moderate hepatic impairment compared with healthy patients,[1],not significantly different
same,AUC Change Relative to Reference (90% CI); mean ratio of AUC0-12,[1],1.17
same,Cmax Change Relative to Reference (90% CI); mean ratio of Cmax,[1],1.21
same,AUC Change Relative to Reference (90% CI); mean ratio of AUC0-12,[1]; listed as DM,"1.17 (0.85, 1.61)"
same,Cmax Change Relative to Reference (90% CI); mean ratio of Cmax,[1]; listed as DM,"1.21 (0.90, 1.62)"
same,increase of exposure in moderate renal impairment vs matched controls with normal renal function,[2]; [11],approximately 2 fold
same,reduction of clearance in moderate renal impairment vs matched controls,[2]; [11],50%
same,increase in AUC0-12 in moderate renal impairment,[2]; [12],2.21 fold
same,increase in Cmax in moderate renal impairment,[2]; [12],2.10 fold
same,solubility in water,[3],sparingly soluble in water
same,decrease of AUC0-12 when administered with food,[5],14%
same,increase in AUC0-12 in poor metabolizers compared to extensive metabolizers,[6]; [13],~3.4 fold
same,increase in Cmax in poor metabolizers compared to extensive metabolizers,[6]; [13],~3 fold
same,steady state plasma concentrations in poor metabolizers vs non-poor metabolizers,[6]; 12 poor metabolizers treated with the subject combination in efficacy trials,generally higher than exposures for non-poor metabolizers
same,plasma concentrations in CYP2D6 poor metabolizers compared to patients who are not CYP2D6 poor metabolizers,[6]; subject composition,increases plasma concentrations of dextromethorphan
same,increase of AUC0-12 with concomitant paroxetine,[7]; [14],2.69 fold
same,increase of Cmax with concomitant paroxetine,[7]; [14],2.38 fold
same,increase of overall exposure by paroxetine,"[7]; co-administration of paroxetine and the subject combination, 29 healthy volunteers",2.5 fold
same,plasma concentrations on concomitant use of the subject combination with strong CYP2D6 inhibitor,[7]; in vivo,increases plasma concentrations of dextromethorphan
same,dose proportionality of changes in AUC and Cmax at steady state,[8]; varying doses of bupropion (75 to 150 mg),less than dose-proportional changes
same,dose proportionality of changes in AUC and Cmax at steady state,[8]; varying doses of dextromethorphan (30 to 60 mg),greater than dose-proportional changes
"CN[C@]1(c2ccccc2Cl)CCCCC1=O [esketamine, Esketamine]",Incidence of Sedation (MOAA/S score <5),"[9]; fixed-dose study, patients <65 years with treatment-resistant depression, 56 mg + oral AD, N = 114",50%
same,Incidence of Sedation (MOAA/S score <5),"[9]; fixed-dose study, patients <65 years with treatment-resistant depression, 84 mg + oral AD, N = 114",61%
same,Incidence of Sedation (MOAA/S score <5),[9]; [15],49%
same,Incidence of Dissociation (CADSS total score >4 and change >0),"[10]; fixed-dose study, patients <65 years with treatment-resistant depression, 56 mg + oral AD, N = 113",61%
same,Incidence of Dissociation (CADSS total score >4 and change >0),"[10]; fixed-dose study, patients <65 years with treatment-resistant depression, 84 mg + oral AD, N = 116",69%
same,Incidence of Dissociation (CADSS total score >4 and change >0),[10]; [15],75%
